Test results from US20150065440A1 (Progen Pharmaceuticals Limited, priority 2007, published 2015).
Structures can show the parent of a compound that is named as a salt. Where two headings read alike, the source gives them in different places.

How the values were obtained:
[1] = test system: normal pooled human plasma; test: Anticoagulant activity, Heptest; settings: 0.1 mg/mL in normal pooled human plasma
VEGF = target: T1, VEGF (Homo sapiens, UniProt P15692); test: Growth factor binding assay (SPR solution affinity), VEGF; settings: HBS-EP buffer, 25° C.
T1 sequence (P15692 207-395): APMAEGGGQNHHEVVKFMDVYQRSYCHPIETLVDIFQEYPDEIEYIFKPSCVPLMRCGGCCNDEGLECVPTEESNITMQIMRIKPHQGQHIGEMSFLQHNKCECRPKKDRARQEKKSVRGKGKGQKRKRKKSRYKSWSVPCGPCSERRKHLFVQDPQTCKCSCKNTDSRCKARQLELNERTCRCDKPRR
Procedure: (§1) Binding affinities of compounds for the growth factors FGF-1, FGF-2 and VEGF were measured using a surface plasmon resonance (SPR) based solution affinity assay.^9 Heparin-coated sensorchips used for this assay were prepared via immobilisation of biotinylated BSA-heparin on a streptavidin-coated sensorchip, or via aldehyde coupling using either adipic acid dihydrazide or 1,4-diaminobutane.^9 For each Kd measurement, solutions were prepared containing a fixed concentration of protein and varying concentrations of the ligand in buffer. Ligands binding to FGF-1 and VEGF were measured in HBS-EP buffer (10 mM HEPES, pH 7.4, 150 mM NaCl, 3.0 mM EDTA and 0.005% (v/v) polysorbate 20), while binding to FGF-2 was measured in HBS-EP buffer containing 0.3 M NaCl. Prior to injection, samples were maintained at 4° C. to maximise protein stability. For each assay mixture, 50-200 μL of solution was injected at 5-40 μL/min and the relative binding response measured. All surface binding experiments were performed at 25° C. The surface was regenerated by injection of 40 μL of 4M NaCl at 40 μL/min, followed by injection of 40 μL of buffer at 40 μL/min.
(§2) Sensorgram data were analysed using the BIAevaluation software (BIAcore) and Kd values determined as previously described.^9 Where Kd values were measured in duplicate, the values represent the average of the duplicate measurements.

[2] = test system: HUVEC proliferation induced by FGF-1; test: Growth factor induced endothelial cell proliferation assay, FGF-1; format: cell-based, human; settings: Homo sapiens, HUVEC, 72 h; read-out: FGF-1 (IC50) inhibition of HUVEC proliferation
Text: (§3) HUVEC cells were maintained and subcultured according to standard cell culture protocols essentially as described by Lonza. Briefly, cells were maintained in Lonza endothelial growth media (EGM) with recommended supplements and growth factors (VEGF, FGF2, EFG, IGF, hydrocortisone, fetal bovine serum (FBS), ascorbic acid, heparin and gentamicin). Cells were subcultured when they reached 70-80% confluence by trypsinisation and reseeding in fresh growth medium in new culture vessels at 2500 to 5000 cells/cm^2 of vessel surface area. Cell counts were performed using a haemocytometer and viable cells were visualized with trypan blue.
(§4) Medium for the proliferation studies was prepared using EGM with 2% FBS and gentamicin only. In a later study, complete EGM was used for the VEGF groups in an attempt to enhance the proliferative index of VEGF-stimulated groups. For the tube formation assay, complete medium was used with only heparin omitted. Compounds under investigation were weighed out from powder stocks and diluted in PBS to 10 mM stock solutions and stored at −80° C. For experiments, compounds were subsequently diluted in EBM-2 medium (supplemented with 2% FBS and gentamicin) to various working concentration as required.
(§5) In the first of a series of experiments, the assay was further optimized by examining the cell density and growth factor concentration required to induce maximal proliferation by growth factors. Briefly, 100 μL of cells was added to each well at concentrations between 1-3×10^3 per well. Growth factors and test compounds were then added in 50 μL volumes at specified concentrations to obtain a final volume of 200 μL. Following incubation for 70 h, 20 μL of the CellTitre 96® Aqueous One Solution Cell Proliferation Assay (Promega) was added for 2 h prior to reading the absorbance at 490 nm to obtain OD values.

[3] = test system: pooled normal human plasma; test: Anticoagulant activity, APTT; settings: 0.1 mg/mL in normal pooled human plasma
Procedure: APTT measurements were performed on a STAGO STA-Compact Coagulation Analyser using standard protocols according to the manufacturer's instructions. Unfractionated heparin (UFH) was used as a control.

[4] = test system: HUVEC proliferation induced by FGF-2; test: Growth factor induced endothelial cell proliferation assay, FGF-2; format: cell-based, human; settings: Homo sapiens, HUVEC, 72 h; read-out: FGF-2 (IC50) inhibition of HUVEC proliferation
Text: as §3, §4, §5

HSV-2 = test: Viral plaque number-reduction assay, HSV-2; settings: Human alphaherpesvirus 2, read-out: HSV-2 IC50
Procedure: (§6) African green monkey kidney (GMK AH1) cells^46 were cultured in Eagle's minimum essential medium (EMEM) supplemented with 2% calf serum, 0.05% Primaton RL substance (Kraft Inc., Norwich, USA) and antibiotics. Human epidermoid carcinoma (HEp-2) cells were cultured in Dulbecco's modified EMEM (DMEM) supplemented with 10% fetal calf serum and antibiotics. […] The RSV strain A-2^50 was used. The RSV stock was prepared as described by Hallak et al.^51 and stored at −70° C. in the presence of 40% sucrose^52.
(§7) The viral infectivity (the plaque number-reduction) assay and the plaque size-reduction assay were carried out as described previously^17. […] Subsequently, the cells were washed with 2 mL of EMEM and overlaid with 1% methylcellulose solution in EMEM. The plaques were visualized by staining with crystal violet solution after 2 (HSV-2) or 3 (HSV-1) days of incubation at 37° C. […] When the compounds were screened for anti-HSV or anti-RSV activity, mixtures of 200 PFU of the virus and the test compound (100 μg/mL) in serum-free EMEM were incubated for 10 min at room temperature before addition to cells and during the entire period of viral infection of cells and the development of viral plaques. In the plaque size-reduction assay, the compounds were added to cells (in methylcellulose overlay medium) after 2 h period of virus infection of cells in the absence of the inhibitor. After 2-3 days of incubation at 37° C., the viral plaques were visualized by staining the cells with 1% solution of crystal violet. For each compound tested, the images of twenty neighboring plaques were captured using a Leica DC300 digital camera attached to a Leitz-Wetzlar Diavert microscope. The area of each plaque was determined using IM500 image software (Leica). Similar protocols were used for RSV, except that the assays were performed in HEp-2 cells and DMEM supplemented with 2% heat-inactivated fetal calf serum was used instead of EMEM.

[5] = test system: HUVEC proliferation induced by VEGF; test: Growth factor induced endothelial cell proliferation assay, VEGF; format: cell-based, human; settings: Homo sapiens, HUVEC, 72 h; read-out: VEGF (IC50) inhibition of HUVEC proliferation
Text: as §3, §4, §5

RSV = test: Viral plaque number-reduction assay, RSV; settings: human respiratory syncytial virus, read-out: RSV IC50
Procedure: as §6, §7

[6] = target: T2, recombinant human heparanase (Homo sapiens, UniProt Q9Y251); test: Heparanase inhibition assay (fondaparinux cleavage, WST-1)
T2 sequence (Q9Y251 158-543 limits assumed): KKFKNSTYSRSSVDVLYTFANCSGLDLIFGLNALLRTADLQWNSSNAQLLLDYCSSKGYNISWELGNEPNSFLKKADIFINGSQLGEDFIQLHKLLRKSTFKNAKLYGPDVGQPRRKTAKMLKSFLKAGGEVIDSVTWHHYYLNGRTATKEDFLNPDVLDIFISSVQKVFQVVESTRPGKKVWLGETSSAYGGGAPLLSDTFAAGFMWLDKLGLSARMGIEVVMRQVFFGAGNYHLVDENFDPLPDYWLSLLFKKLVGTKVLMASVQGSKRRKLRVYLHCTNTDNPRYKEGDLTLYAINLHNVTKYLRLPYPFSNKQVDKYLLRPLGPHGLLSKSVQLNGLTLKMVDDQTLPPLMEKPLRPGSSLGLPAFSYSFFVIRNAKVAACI
T2 sequence (Q9Y251 36-109 limits assumed): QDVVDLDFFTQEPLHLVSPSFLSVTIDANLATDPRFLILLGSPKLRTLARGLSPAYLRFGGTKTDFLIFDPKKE

FGF-1 = FGF-1 (Homo sapiens, UniProt P05230); test: Growth factor binding assay (SPR solution affinity), FGF-1
Procedure: as §1, §2

FGF-2 = FGF-2 (Homo sapiens, UniProt P09038); test: Growth factor binding assay (SPR solution affinity), FGF-2
Procedure: as §1, §2

[7] = format: in vivo, Sprague-Dawley rats; settings: rat, in vivo
Procedure: Adult male Sprague-Dawley (SD) rats (approx 300 g) were used for the experiment. Femoral artery cannulae was implanted and exteriorised following isoflurane anaesthesia. Jugular vein artery cannulae was implanted and exteriorized. […]. Blood samples (˜325 μL) were collected into sample tubes containing the anticoagulant sodium citrate from femoral artery catheter pre-dose and at 5, 20 minutes and 2, 5, 8, 12, 24, and 48 hours post-dose, and kept at reduced temperature (approx 4° C.) until centrifuged. Blood samples were centrifuged, plasma separated and 50 μL aliquot of the plasma transferred to a scintillation vial for counting. At the end of the experimental period animals were euthanased via a lethal overdose of pentobarbital. The level of radioactivity in the plasma was measured following mixing of samples with Packard Ultima Gold liquid scintillation counting cocktail. Counting was conducted on a Beckman liquid scintillation counter (LS6500) or Packard TriCarb liquid scintillation counter for 10 minutes per sample. Results (DPM, calculated from an in-built quench curve in the counter) were corrected for background prior to any calculations. The pharmacokinetic parameters were calculated using PK Solutions 2.0 software (Summit Research Services, Ohio, U.S.A.) and are summarised in Table 11 below.

[8] = SPR, HBS-EP buffer, 25° C., read-out: Kd FGF-1
[9] = SPR, HBS-EP buffer containing 0.3 M NaCl, 25° C., read-out: Kd FGF-2

Chain of FGF-1 (P05230 whole entry, species assumed): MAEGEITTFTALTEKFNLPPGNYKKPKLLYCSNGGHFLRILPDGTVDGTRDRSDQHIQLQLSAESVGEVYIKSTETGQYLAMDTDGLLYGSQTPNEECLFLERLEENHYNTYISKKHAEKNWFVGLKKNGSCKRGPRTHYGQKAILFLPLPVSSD
Chain of FGF-2 (P09038 143-288, species assumed): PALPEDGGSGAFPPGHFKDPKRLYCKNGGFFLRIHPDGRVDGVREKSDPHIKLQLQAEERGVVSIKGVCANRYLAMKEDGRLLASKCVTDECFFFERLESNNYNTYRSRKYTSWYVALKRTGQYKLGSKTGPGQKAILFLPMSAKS

Compound | Heptest [1] [s] | Kd (VEGF) [µM] | IC50 [2] [µM] | APTT [3] [s] | IC50 [4] [µM] | IC50 (HSV-2) [mg/L] | IC50 [5] [µM] | IC50 (RSV) [mg/L] | Ki ([6]; read-out: Ki Heparanase, IC50 converted into Ki, fondaparinux 100 μM, pH 5.0) [µM] | Kd (FGF-1; [8]) [µM] | Kd (FGF-2) [µM] | Ki [6] [µM] | Kd (FGF-1) [µM] | Kd (FGF-2; [9]) [µM] | Half-life (iv) ([7]; iv) [h] | Half-life (sc) ([7]; sc) [h]
CC(C)CCC[C@@H](C)[C@H]1CC[C@H]2[C@@H]3CC[C@H]4C[C@@H](O[C@H]5O[C@H](COS(=O)(=O)O)[C@@H](OS(=O)(=O)O)[C@H](OS(=O)(=O)O)[C@@H]5OS(=O)(=O)O)CC[C@]4(C)[C@H]3CC[C@]12C [Compound 79, 3β-Cholestanyl 2,3,4,6-tetra-O-sulfonato-α-D-mannopyranoside tetrasodium salt] | 23.9 | 3 ± 0.4 | 2.2 | 36.1 | 2.9 | 0.28 | 2.24 | 2.9 | 0.111 ± 0.028 | 3.6 ± 0.6 |  |  |  |  |  | 
CC(C)CCCC(C)C1CCC2C3CCC4CC(OCc5cn(C6OC(COS(=O)(=O)O)C(OC7OC(COS(=O)(=O)O)C(OS(=O)(=O)O)C(OS(=O)(=O)O)C7OS(=O)(=O)O)C(OS(=O)(=O)O)C6OS(=O)(=O)O)nn5)CCC4(C)C3CCC12C [Compound 93, 4-(Cholestan-3β-yl-oxymethyl) [1,2,3]triazol-1-yl 2,3,4,6-tetra-O-sulfo-β-D-galactopyranosyl-(1→4)-2,3,6-tri-O-sulfo-β-D-glucopyranoside, heptasodium salt] | 25.3 | 1.6 ± 0.3 | 2.69 | 39.6 | 2.43 | 0.27 | 2.62 | 0.4 |  |  | 1.8 ± 0.3 | 0.03 ± 0.007 | 0.61 ± 0.21 |  |  | 
CC(C)CCC[C@@H](C)[C@H]1CC[C@H]2[C@@H]3CC[C@H]4C[C@@H](OCc5cn([C@@H]6O[C@H](COS(=O)(=O)O)[C@@H](O[C@H]7O[C@H](COS(=O)(=O)O)[C@@H](OS(=O)(=O)O)[C@H](OS(=O)(=O)O)[C@H]7OS(=O)(=O)O)[C@H](OS(=O)(=O)O)[C@H]6OS(=O)(=O)O)nn5)CC[C@]4(C)[C@H]3CC[C@]12C [Compound 97, 4-(Cholestan-3β-yl-oxymethyl) [1,2,3]triazol-1-yl 2,3,4,6-tetra-O-sulfo-α-D-glucopyranosyl-(1→4)-2,3,6-tri-O-sulfo-β-D-glucopyranoside, heptasodium salt] | 26.7 | 1.93 ± 0.23 | 4.09 | 40.3 | 4.17 | 0.26 | 1.13 | 0.58 |  | 0.84 ± 0.13 |  |  |  | 3.4 ± 0.3 |  | 
CC(C)CCCC(C)C1CCC2C3CCC4CC(OC5OC(COS(=O)(=O)O)C(OC6OC(COS(=O)(=O)O)C(OS(=O)(=O)O)C(OS(=O)(=O)O)C6OS(=O)(=O)O)C(OS(=O)(=O)O)C5OS(=O)(=O)O)CCC4(C)C3CCC12C [Compound 102, 3′-Cholestanyl 2,3,4,6-tetra-O-sulfo-α-D-glucopyranosyl-(1→4)-2,3,6-tri-O-sulfo-β-D-glucopyranoside, heptasodium salt] | 23.9 | 1.2 ± 0.4 | 3.95 | 38.6 | > 10 | 0.43 | 5.17 | 1.8 |  |  |  |  | 0.56 ± 0.03 | 2.2 ± 0.4 |  | 
PI-88 [reference compound] |  |  |  |  |  |  |  |  |  |  |  |  |  |  | 1.1 | 1.2
